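Values below derive from 48-hour exposures of cells grown in 96-well plates, with endpoints linearly interpolated between the two concentrations bracketing the appropriate inhibition level. At the GI50, growth is halved. The concentration for full growth arrest is given as TGI.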
How the values were obtained:
Test in all cases: NCI anticancer screen, dose series, 48 h
ACHN renal = system: ACHN renal
MOLT-4 leukemia = system: MOLT-4 leukemia
UO-31 renal = system: UO-31 renal
786-0 renal = system: 786-0 renal
A549 NSCLC = system: A549 NSCLC
SNB-19 CNS = system: SNB-19 CNS
MDA-MB-231 breast = system: MDA-MB-231 breast
SN12C renal = system: SN12C renal
OVCAR-3 ovarian = system: OVCAR-3 ovarian
SK-MEL-5 melanoma = system: SK-MEL-5 melanoma
UACC-62 melanoma = system: UACC-62 melanoma
CAKI-1 renal = system: CAKI-1 renal
OVCAR-8 ovarian = system: OVCAR-8 ovarian
NCI-H522 lung = system: NCI-H522 lung
HT29 colon = system: HT29 colon
HCT-15 colon = system: HCT-15 colon
OVCAR-5 ovarian = system: OVCAR-5 ovarian
K-562 leukemia = system: K-562 leukemia
SF-268 CNS = system: SF-268 CNS
EKVX NSCLC = system: EKVX NSCLC
MALME-3M melanoma = system: MALME-3M melanoma
HCC-2998 colon = system: HCC-2998 colon
UACC-257 melanoma = system: UACC-257 melanoma
SR leukemia = system: SR leukemia
SK-MEL-2 melanoma = system: SK-MEL-2 melanoma
HCT-116 colon = system: HCT-116 colon
RPMI-8226 leukemia = system: RPMI-8226 leukemia
TK-10 renal = system: TK-10 renal
CCRF-CEM leukemia = system: CCRF-CEM leukemia
BT-549 breast = system: BT-549 breast
MCF7 breast = system: MCF7 breast
SK-OV-3 ovarian = system: SK-OV-3 ovarian
T-47D breast = system: T-47D breast
MDA-MB-435 = system: MDA-MB-435
SF-295 CNS = system: SF-295 CNS
RXF 393 renal = system: RXF 393 renal
NCI-H23 lung = system: NCI-H23 lung
COLO 205 colon = system: COLO 205 colon
HOP-92 NSCLC = system: HOP-92 NSCLC
SK-MEL-28 melanoma = system: SK-MEL-28 melanoma
NCI-H226 lung = system: NCI-H226 lung
LOX IMVI melanoma = system: LOX IMVI melanoma
DU-145 prostate = system: DU-145 prostate
HS 578T breast = system: HS 578T breast
NCI/ADR-RES ovarian = system: NCI/ADR-RES ovarian
SF-539 CNS = system: SF-539 CNS
NCI-H460 lung = system: NCI-H460 lung
IGROV1 ovarian = system: IGROV1 ovarian
KM12 colon = system: KM12 colon
HL-60(TB) leukemia = system: HL-60(TB) leukemia
OVCAR-4 ovarian = system: OVCAR-4 ovarian
U251 CNS = system: U251 CNS
PC-3 prostate = system: PC-3 prostate
HOP-62 NSCLC = system: HOP-62 NSCLC
A498 renal = system: A498 renal
M14 melanoma = system: M14 melanoma
SNB-75 CNS = system: SNB-75 CNS
SW-620 colon = system: SW-620 colon

Compound: C1CCC(C(CC2CCCCN2)C2CCCCC2)CC1 (stereo unspecified)
- GI50 (ACHN renal): 1.83 µM
- TGI (ACHN renal): 3.32 µM
- GI50 (MOLT-4 leukemia): 2.45 µM
- TGI (MOLT-4 leukemia): 4.98 µM
- GI50 (UO-31 renal): 1.33 µM
- TGI (UO-31 renal): 2.65 µM
- GI50 (786-0 renal): 1.64 µM
- TGI (786-0 renal): 3.16 µM
- GI50 (A549 NSCLC): 1.72 µM
- TGI (A549 NSCLC): 3.32 µM
- GI50 (SNB-19 CNS): 1.78 µM
- TGI (SNB-19 CNS): 3.51 µM
- GI50 (MDA-MB-231 breast): 1.25 µM
- TGI (MDA-MB-231 breast): 2.6 µM
- GI50 (SN12C renal): 1.51 µM
- TGI (SN12C renal): 2.97 µM
- GI50 (OVCAR-3 ovarian): 1.82 µM
- TGI (OVCAR-3 ovarian): 3.26 µM
- GI50 (SK-MEL-5 melanoma): 1.55 µM
- TGI (SK-MEL-5 melanoma): 2.91 µM
- GI50 (UACC-62 melanoma): 1.53 µM
- TGI (UACC-62 melanoma): 2.96 µM
- GI50 (CAKI-1 renal): 1.55 µM
- TGI (CAKI-1 renal): 3.06 µM
- GI50 (OVCAR-8 ovarian): 1.77 µM
- TGI (OVCAR-8 ovarian): 3.53 µM
- GI50 (NCI-H522 lung): 1.6 µM
- TGI (NCI-H522 lung): 3.16 µM
- GI50 (HT29 colon): 1.55 µM
- TGI (HT29 colon): 3.06 µM
- GI50 (HCT-15 colon): 1.81 µM
- TGI (HCT-15 colon): 3.48 µM
- GI50 (OVCAR-5 ovarian): 1.7 µM
- TGI (OVCAR-5 ovarian): 3.22 µM
- GI50 (K-562 leukemia): 2.45 µM
- TGI (K-562 leukemia): 5.11 µM
- GI50 (SF-268 CNS): 1.77 µM
- TGI (SF-268 CNS): 3.23 µM
- GI50 (EKVX NSCLC): 1.62 µM
- TGI (EKVX NSCLC): 3.28 µM
- GI50 (MALME-3M melanoma): 1.92 µM
- TGI (MALME-3M melanoma): 3.69 µM
- GI50 (HCC-2998 colon): 1.41 µM
- TGI (HCC-2998 colon): 2.96 µM
- GI50 (UACC-257 melanoma): 1.71 µM
- TGI (UACC-257 melanoma): 3.53 µM
- GI50 (SR leukemia): 2.74 µM
- TGI (SR leukemia): 6.67 µM
- GI50 (SK-MEL-2 melanoma): 2.03 µM
- TGI (SK-MEL-2 melanoma): 3.69 µM
- GI50 (HCT-116 colon): 1.68 µM
- TGI (HCT-116 colon): 3.14 µM
- GI50 (RPMI-8226 leukemia): 2.17 µM
- TGI (RPMI-8226 leukemia): 5.56 µM
- GI50 (TK-10 renal): 1.63 µM
- TGI (TK-10 renal): 3.09 µM
- GI50 (CCRF-CEM leukemia): 1.97 µM
- TGI (CCRF-CEM leukemia): 4.82 µM
- GI50 (BT-549 breast): 1.93 µM
- TGI (BT-549 breast): 3.51 µM
- GI50 (MCF7 breast): 1.65 µM
- TGI (MCF7 breast): 3.14 µM
- GI50 (SK-OV-3 ovarian): 1.54 µM
- TGI (SK-OV-3 ovarian): 2.88 µM
- GI50 (T-47D breast): 1.44 µM
- TGI (T-47D breast): 2.94 µM
- GI50 (MDA-MB-435): 1.59 µM
- TGI (MDA-MB-435): 3.07 µM
- GI50 (SF-295 CNS): 1.73 µM
- TGI (SF-295 CNS): 3.21 µM
- GI50 (RXF 393 renal): 1.42 µM
- TGI (RXF 393 renal): 2.78 µM
- GI50 (NCI-H23 lung): 1.72 µM
- TGI (NCI-H23 lung): 3.49 µM
- GI50 (COLO 205 colon): 1.42 µM
- TGI (COLO 205 colon): 2.79 µM
- GI50 (HOP-92 NSCLC): 0.99 µM
- TGI (HOP-92 NSCLC): 2.36 µM
- GI50 (SK-MEL-28 melanoma): 1.88 µM
- TGI (SK-MEL-28 melanoma): 3.3 µM
- GI50 (NCI-H226 lung): 1.64 µM
- TGI (NCI-H226 lung): 3.19 µM
- GI50 (LOX IMVI melanoma): 1.57 µM
- TGI (LOX IMVI melanoma): 3.21 µM
- GI50 (DU-145 prostate): 1.8 µM
- TGI (DU-145 prostate): 3.21 µM
- GI50 (HS 578T breast): 2.15 µM
- TGI (HS 578T breast): 5.55 µM
- GI50 (NCI/ADR-RES ovarian): 1.88 µM
- TGI (NCI/ADR-RES ovarian): 3.81 µM
- GI50 (SF-539 CNS): 1.82 µM
- TGI (SF-539 CNS): 3.39 µM
- GI50 (NCI-H460 lung): 1.84 µM
- TGI (NCI-H460 lung): 3.62 µM
- GI50 (IGROV1 ovarian): 1.87 µM
- TGI (IGROV1 ovarian): 3.45 µM
- GI50 (KM12 colon): 1.87 µM
- TGI (KM12 colon): 3.42 µM
- GI50 (HL-60(TB) leukemia): 2.37 µM
- TGI (HL-60(TB) leukemia): 4.38 µM
- GI50 (OVCAR-4 ovarian): 1.65 µM
- TGI (OVCAR-4 ovarian): 3.04 µM
- GI50 (U251 CNS): 1.59 µM
- TGI (U251 CNS): 3.02 µM
- GI50 (PC-3 prostate): 1.5 µM
- TGI (PC-3 prostate): 2.95 µM
- GI50 (HOP-62 NSCLC): 1.35 µM
- TGI (HOP-62 NSCLC): 2.64 µM
- GI50 (A498 renal): 1.36 µM
- TGI (A498 renal): 2.67 µM
- GI50 (M14 melanoma): 1.76 µM
- TGI (M14 melanoma): 3.34 µM
- GI50 (SNB-75 CNS): 1.77 µM
- TGI (SNB-75 CNS): 3.43 µM
- GI50 (SW-620 colon): 1.77 µM
- TGI (SW-620 colon): 3.4 µM

— PubChem BioAssay (NCI)
